Active and inactive are the calls of the source.
Columns and labels:
Cannabinoid receptor 2 [1] = target: T1, Cannabinoid receptor 2 (Homo sapiens, UniProt P34972); test: SAR analysis of antagonists of the Cannabinoid Receptor 2 using an Image-Based Assay - Set 2. [Related pubchem assays (depositor defined):AID1961, AID1965]; type: functional
Cannabinoid receptor 2 [2] = target: T1, Cannabinoid receptor 2; test: SAR analysis of agonists of the Cannabinoid Receptor 2 using an Image-Based Assay - Set 2. [Related pubchem assays (depositor defined):AID1961, AID1965]; type: functional
[3] = target: G-protein coupled receptor 55 (Homo sapiens, UniProt Q9Y2T6); test: SAR analysis of selective Agonists of GPR55 using an Image-Based Assay. [Related pubchem assays (depositor defined):AID1961, AID1965]; type: functional
Cannabinoid receptor 1 = Cannabinoid receptor 1 (Homo sapiens, UniProt P21554); test: SAR analysis of antagonists of the Cannabinoid Receptor 1 using an Image-Based Assay. [Related pubchem assays (depositor defined):AID1961, AID1965]; type: functional
NS3 = NS3 (Hepatitis C virus, UniProt A3EZJ3); test: PubChem AID 2173; parameters: species or system Hepacivirus hominis
[4] = target: Induced myeloid leukemia cell differentiation protein Mcl-1 (Homo sapiens, UniProt Q07820); type: functional
[5] = target: Intestinal-type alkaline phosphatase (Homo sapiens, UniProt P09923); test: activation of human intestinal alkaline phosphatase – biochemical, dose response (AID 488873); type: functional
[6] = target: Intestinal-type alkaline phosphatase (Mus musculus, UniProt P24822); test: mouse intestinal alkaline phosphatase activators, dose response, biochemical, luminescence, uHTS hits (AID 488783); type: functional
[7] = target: T2, Alkaline phosphatase, tissue-nonspecific isozyme (Homo sapiens, UniProt P05186); test: TNAP enzyme activators, dose response, selectivity assay for mouse IAP activator project, biochemical, TNAP isozyme, mouse IAP uHTS hits (AID 488880); type: functional
T2 sequence (P05186 whole entry): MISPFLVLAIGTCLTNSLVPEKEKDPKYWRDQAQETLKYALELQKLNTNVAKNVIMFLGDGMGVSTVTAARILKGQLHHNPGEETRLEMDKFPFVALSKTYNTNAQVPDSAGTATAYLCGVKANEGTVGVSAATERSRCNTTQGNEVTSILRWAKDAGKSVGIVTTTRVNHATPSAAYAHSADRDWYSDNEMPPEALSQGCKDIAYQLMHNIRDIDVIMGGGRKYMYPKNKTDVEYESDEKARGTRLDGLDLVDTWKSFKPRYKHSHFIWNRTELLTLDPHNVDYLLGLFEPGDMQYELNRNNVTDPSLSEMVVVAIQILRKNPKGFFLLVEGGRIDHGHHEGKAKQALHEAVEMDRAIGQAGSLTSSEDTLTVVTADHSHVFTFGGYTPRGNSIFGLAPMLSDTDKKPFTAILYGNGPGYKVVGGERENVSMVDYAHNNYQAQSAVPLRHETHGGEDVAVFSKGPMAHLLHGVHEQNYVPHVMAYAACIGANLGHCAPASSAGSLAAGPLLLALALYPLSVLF

[8] = target: 1-phosphatidylinositol 4,5-bisphosphate phosphodiesterase gamma-1 (Homo sapiens, UniProt P19174); test: Counterscreen for inhibitors of phospholipase C isozymes (PLC-B3): Fluorescence-based biochemical high throughput dose response assay to identify inhibitors of phospholipase C isozymes (PLC-gamma1).
[9] = target: 1-phosphatidylinositol 4,5-bisphosphate phosphodiesterase beta-3 (Homo sapiens, UniProt Q01970); test: Fluorescence-based biochemical high throughput dose response assay to identify inhibitors of phospholipase C isozymes (PLC-B3).
[10] = target: T3, Dual specificity protein phosphatase 3 (Homo sapiens, UniProt P51452); test: VHR1 phosphatase inhibitors, primary screen, biochemical, absorbance, uHTS (AID 1654)
[11] = target: T4, Tyrosine-protein phosphatase non-receptor type 7 (Homo sapiens, UniProt P35236); test: inhibitors of human HePTP phosphatase, […], biochemical, absorbance, leukemia target (AID 521); type: functional
T4 sequence (P35236 whole entry): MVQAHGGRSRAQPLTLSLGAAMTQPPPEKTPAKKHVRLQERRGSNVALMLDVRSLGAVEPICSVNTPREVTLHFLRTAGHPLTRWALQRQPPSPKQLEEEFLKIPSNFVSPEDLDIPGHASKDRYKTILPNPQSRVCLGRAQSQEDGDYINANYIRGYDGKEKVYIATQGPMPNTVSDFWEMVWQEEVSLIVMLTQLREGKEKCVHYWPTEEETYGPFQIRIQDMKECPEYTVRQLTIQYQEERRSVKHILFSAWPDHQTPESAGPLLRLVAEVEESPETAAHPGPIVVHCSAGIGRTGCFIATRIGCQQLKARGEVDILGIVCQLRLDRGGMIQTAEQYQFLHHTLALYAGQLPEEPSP

BJ [12] = test: cytotoxicity toward BJ-TERT fibroblasts, dose response, cell-based, RAS-independent, luminescence (AID 1933); type: functional; details: Homo sapiens
[13] = target: T4, Tyrosine-protein phosphatase non-receptor type 7; type: functional
BJ [14] = test: cells; type: functional, cell-based; details: Homo sapiens
[15] = target: T3, Dual specificity protein phosphatase 3; test: VHR1 phosphatase inhibitors, biochemical (AID 1878)
BJ [16] = test: cytotoxicity toward BJ-TERT-LT-ST fibroblasts, dose response, cell-based, RAS-independent, luminescence (AID 1935); type: functional; details: Homo sapiens;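 further: BJ fibroblasts immortalized with TERT plus LT and ST oncogenes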
[17] = target: T5, Dual specificity protein phosphatase 6 (Rattus norvegicus, UniProt Q64346); test: MKP-3 phosphatase inhibitors, primary screen, biochemical, rat enzyme, in vitro (AID 425)
T5 sequence (Q64346 whole entry): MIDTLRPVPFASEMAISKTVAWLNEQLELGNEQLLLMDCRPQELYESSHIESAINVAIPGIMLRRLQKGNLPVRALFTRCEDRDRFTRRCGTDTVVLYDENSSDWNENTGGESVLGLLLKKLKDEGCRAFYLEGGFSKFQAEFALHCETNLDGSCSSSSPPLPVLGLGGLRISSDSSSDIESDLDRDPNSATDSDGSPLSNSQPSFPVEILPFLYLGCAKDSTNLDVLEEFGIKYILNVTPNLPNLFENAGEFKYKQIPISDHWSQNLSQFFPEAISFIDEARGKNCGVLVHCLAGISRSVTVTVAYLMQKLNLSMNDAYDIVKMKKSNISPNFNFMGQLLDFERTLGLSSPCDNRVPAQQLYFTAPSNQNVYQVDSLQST

[18] = cytotoxicity toward DRD oncogenic fibroblasts, dose response, cell-based, non-viral oncogenic, luminescence (AID 1934); type: functional; details: Homo sapiens
[19] = target: T6, Tyrosine-protein phosphatase non-receptor type 22 (Homo sapiens, UniProt Q9Y2R2); type: functional
[20] = target: T6, Tyrosine-protein phosphatase non-receptor type 22; type: functional; remark: listed apart in the source
[21] = target: Heat shock protein HSP 90-alpha (Homo sapiens, UniProt P07900); type: functional, organism-based
BJ [22] = test: cytotoxicity toward Ras-transformed BJeLR fibroblasts, dose response, cell-based, alamar blue fluorescence, cherrypicked samples (AID 2631); type: functional; details: Homo sapiens;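 further: confirmatory dose-response assay in RAS-dependent BJ fibroblasts engineered with TERT, LT and ST, with cytotoxicity read by fluorescence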
[23] = target: T7, E3 ubiquitin-protein ligase XIAP (Homo sapiens, UniProt P98170); test: Counter Screen using XIAP-Bir3 of the Chemical Antagonists of IAP-family anti-apoptotic proteins confirmation assay. [Related pubchem assays (depositor defined):AID1018, AID1449, AID1513, AID1638, AID1749, AID1750, AID488957, AID488963]
[24] = target: T7, E3 ubiquitin-protein ligase XIAP; test: Chemical Antagonists of IAP-family anti-apoptotic proteins confirmation. [Related pubchem assays (depositor defined):AID1018, AID1513, AID1514, AID1638, AID1749, AID1750, AID488957, AID488963]
Hexokinase HKDC1 = Hexokinase HKDC1 (Homo sapiens, UniProt Q2TB90); test: HKDC1 hexokinase activators, dose response, biochemical, W721R variant (AID 504730); type: functional
Hexokinase-1 = Hexokinase-1 (Homo sapiens, UniProt P19367); test: hexokinase 1 activators, dose response, selectivity assay for HKDC1 activator project, biochemical (AID 504762); type: functional

T3 sequence (P51452 whole entry): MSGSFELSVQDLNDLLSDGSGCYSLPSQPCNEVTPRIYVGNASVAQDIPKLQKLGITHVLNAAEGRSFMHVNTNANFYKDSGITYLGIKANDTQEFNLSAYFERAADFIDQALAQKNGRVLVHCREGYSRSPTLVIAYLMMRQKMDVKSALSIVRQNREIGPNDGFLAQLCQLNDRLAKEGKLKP
T6 sequence (Q9Y2R2 whole entry): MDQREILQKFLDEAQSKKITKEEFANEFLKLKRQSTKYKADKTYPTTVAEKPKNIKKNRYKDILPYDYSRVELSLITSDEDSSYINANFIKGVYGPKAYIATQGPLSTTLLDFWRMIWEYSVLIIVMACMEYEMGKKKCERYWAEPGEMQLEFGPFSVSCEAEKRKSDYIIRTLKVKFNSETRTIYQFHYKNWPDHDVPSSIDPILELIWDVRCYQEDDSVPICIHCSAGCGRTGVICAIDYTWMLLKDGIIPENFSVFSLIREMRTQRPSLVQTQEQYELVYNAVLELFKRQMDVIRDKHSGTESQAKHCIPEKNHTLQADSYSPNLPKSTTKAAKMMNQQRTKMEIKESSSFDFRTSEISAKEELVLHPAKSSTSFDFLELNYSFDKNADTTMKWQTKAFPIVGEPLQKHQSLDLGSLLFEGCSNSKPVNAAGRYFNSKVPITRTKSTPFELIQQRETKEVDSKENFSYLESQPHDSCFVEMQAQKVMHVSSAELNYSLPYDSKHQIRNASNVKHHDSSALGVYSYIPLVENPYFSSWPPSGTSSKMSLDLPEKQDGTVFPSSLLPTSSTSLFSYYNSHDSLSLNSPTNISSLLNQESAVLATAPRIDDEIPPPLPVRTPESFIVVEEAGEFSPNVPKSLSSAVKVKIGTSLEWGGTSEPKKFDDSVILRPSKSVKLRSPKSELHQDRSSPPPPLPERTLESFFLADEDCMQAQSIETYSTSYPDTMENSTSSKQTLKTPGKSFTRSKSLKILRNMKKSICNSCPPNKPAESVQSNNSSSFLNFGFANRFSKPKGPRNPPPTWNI
T7 sequence (P98170 whole entry): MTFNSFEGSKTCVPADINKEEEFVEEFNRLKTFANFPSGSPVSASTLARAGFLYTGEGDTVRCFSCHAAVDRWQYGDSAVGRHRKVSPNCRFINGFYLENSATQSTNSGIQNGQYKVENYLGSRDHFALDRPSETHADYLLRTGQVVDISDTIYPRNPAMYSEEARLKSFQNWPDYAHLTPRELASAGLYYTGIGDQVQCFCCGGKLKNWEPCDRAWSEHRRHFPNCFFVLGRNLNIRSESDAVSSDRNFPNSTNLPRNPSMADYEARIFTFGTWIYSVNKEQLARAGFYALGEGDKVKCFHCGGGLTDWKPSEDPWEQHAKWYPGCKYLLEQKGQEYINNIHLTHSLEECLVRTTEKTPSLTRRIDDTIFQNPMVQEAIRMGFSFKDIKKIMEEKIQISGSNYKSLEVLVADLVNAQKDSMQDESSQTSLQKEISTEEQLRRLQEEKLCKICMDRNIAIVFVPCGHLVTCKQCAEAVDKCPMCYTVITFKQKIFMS
T1 sequence (P34972 whole entry): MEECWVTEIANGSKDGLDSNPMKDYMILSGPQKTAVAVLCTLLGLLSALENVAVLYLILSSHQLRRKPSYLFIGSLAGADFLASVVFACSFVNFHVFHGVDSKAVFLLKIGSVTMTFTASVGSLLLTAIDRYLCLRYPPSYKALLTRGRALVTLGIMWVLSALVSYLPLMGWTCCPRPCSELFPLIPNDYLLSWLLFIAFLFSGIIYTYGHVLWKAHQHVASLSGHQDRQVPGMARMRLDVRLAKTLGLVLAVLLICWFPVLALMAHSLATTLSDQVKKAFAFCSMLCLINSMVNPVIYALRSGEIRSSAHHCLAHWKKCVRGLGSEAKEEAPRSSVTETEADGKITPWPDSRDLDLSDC
Sequence of Hexokinase HKDC1 (Q2TB90 whole entry): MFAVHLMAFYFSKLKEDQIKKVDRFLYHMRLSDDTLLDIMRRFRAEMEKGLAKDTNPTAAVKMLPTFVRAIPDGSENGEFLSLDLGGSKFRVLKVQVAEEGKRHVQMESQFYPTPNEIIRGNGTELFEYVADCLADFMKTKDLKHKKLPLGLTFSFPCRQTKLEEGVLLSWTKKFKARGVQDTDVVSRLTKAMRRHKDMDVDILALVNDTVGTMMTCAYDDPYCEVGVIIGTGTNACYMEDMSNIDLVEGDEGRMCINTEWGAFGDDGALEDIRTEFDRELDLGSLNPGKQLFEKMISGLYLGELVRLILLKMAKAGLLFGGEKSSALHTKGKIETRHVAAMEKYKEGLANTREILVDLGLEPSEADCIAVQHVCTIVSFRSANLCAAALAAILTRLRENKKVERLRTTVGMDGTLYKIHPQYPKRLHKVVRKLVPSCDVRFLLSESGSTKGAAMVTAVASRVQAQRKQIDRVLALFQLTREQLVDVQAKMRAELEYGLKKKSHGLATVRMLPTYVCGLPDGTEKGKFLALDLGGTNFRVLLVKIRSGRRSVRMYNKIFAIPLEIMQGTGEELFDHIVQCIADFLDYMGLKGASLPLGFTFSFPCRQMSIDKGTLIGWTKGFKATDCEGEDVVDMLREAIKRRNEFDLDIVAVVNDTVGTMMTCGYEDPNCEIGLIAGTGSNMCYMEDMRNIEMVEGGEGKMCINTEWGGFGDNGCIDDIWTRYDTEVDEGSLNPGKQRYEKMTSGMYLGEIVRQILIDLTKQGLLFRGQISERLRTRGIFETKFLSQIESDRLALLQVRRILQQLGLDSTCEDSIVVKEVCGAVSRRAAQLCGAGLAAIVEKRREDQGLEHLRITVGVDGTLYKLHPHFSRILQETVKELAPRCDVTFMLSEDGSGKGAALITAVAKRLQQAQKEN
Sequence of 1-phosphatidylinositol 4,5-bisphosphate phosphodiesterase gamma-1 (P19174 whole entry): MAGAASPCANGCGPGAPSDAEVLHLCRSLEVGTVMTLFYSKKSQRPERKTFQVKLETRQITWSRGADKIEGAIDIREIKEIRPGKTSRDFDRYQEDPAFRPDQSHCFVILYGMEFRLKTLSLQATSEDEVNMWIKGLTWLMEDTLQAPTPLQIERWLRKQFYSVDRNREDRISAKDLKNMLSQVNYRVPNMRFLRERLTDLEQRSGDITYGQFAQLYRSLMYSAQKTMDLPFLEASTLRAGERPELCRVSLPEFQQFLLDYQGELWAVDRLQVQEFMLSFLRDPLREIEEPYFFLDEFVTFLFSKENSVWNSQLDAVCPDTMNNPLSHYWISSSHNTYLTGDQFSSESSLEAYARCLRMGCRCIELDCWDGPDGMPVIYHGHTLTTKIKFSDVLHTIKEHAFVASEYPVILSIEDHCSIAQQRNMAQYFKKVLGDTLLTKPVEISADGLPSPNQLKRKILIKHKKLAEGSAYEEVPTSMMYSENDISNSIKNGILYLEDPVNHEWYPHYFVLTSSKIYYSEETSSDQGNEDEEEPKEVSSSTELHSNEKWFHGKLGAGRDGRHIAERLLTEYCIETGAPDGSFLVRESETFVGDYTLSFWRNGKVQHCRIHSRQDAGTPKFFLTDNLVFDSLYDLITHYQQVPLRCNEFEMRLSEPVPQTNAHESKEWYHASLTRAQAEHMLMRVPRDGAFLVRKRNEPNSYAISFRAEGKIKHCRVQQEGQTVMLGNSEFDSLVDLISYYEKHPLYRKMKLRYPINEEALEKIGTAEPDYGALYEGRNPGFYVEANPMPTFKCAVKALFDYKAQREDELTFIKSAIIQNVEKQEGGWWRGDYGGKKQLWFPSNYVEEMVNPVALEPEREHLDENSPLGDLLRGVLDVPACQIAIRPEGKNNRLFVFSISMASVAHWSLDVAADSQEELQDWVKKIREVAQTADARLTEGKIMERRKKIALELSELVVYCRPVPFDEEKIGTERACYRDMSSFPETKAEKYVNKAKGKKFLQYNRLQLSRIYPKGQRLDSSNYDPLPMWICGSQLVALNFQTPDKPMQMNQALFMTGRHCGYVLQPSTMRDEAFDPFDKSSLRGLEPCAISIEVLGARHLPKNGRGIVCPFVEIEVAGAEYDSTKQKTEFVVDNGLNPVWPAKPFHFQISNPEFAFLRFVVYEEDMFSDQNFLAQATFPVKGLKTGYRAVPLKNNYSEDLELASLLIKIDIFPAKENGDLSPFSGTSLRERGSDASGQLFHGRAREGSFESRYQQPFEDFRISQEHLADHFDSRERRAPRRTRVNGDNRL
Sequence of Induced myeloid leukemia cell differentiation protein Mcl-1 (Q07820 whole entry): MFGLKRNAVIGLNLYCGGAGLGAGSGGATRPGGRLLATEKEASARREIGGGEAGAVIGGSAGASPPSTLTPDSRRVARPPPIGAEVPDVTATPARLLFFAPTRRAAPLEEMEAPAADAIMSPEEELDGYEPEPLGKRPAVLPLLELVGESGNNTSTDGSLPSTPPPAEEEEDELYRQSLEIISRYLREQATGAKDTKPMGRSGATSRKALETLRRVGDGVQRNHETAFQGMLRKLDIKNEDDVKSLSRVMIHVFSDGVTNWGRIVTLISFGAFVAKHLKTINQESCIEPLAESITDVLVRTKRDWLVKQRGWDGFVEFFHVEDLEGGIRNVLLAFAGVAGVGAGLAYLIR
Sequence of G-protein coupled receptor 55 (Q9Y2T6 whole entry): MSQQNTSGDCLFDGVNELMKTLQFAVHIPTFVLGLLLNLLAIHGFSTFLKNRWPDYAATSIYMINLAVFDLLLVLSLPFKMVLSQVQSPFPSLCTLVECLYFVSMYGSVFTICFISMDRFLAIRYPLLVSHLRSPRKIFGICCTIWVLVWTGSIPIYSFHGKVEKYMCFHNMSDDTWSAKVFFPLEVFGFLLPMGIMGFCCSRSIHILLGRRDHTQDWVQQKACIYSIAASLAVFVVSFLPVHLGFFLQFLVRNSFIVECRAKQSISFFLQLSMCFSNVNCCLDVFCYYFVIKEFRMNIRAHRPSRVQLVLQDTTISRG

Compound: CCCN(CCC)Cc1c(C(=O)NN=Cc2c[nH]c3ccccc23)nnn1-c1nonc1N
- IC50 (Cannabinoid receptor 2 [1]): > 32 µM (inactive)
- EC50 (Cannabinoid receptor 2 [2]): > 32 µM (inactive)
- EC50 [3]: 0.633 µM (active)
- IC50 (Cannabinoid receptor 1): > 32 µM (inactive)

Compound: O=C1/C(=C/C=C/c2ccco2)SC(=S)N1c1ccc(O)cc1
- IC50 (NS3): 5.35 µM (active)
- IC50 [4]: 1.72 µM (active)
- EC50 [5]: 84.7 µM (active)
- EC50 [6]: 59 µM (active)
- EC50 [7]: 91.3 µM (active)
- IC50 [8]: > 123 µM (inactive)
- IC50 [9]: > 123 µM (inactive)

Compound: O=C(c1cccs1)c1no[n+]([O-])c1C(=O)c1cccs1
- IC50 [10]: < 0.98 µM (inactive)
- IC50 [11]: > 100 µM (not active)
- EC50 (BJ [12]): 0.803 µM (active)
- IC50 [13]: 4.5 µM (active)
- EC50 (BJ [14]): 3.58 µM (active)
- IC50 [15]: 7.48 µM (active)
- EC50 (BJ [16]): 7.28 µM (inconclusive)
- IC50 [17]: 141 µM (not active)
- EC50 [18]: 2.78 µM (inconclusive)
- IC50 [19]: 2.39 µM (active)
- IC50 [20]: < 1.24 µM (active)
- AC50 [21]: 3.5 µM (active)
- EC50 (BJ [22]): 3.9 µM (inconclusive)

Compound: CC(C(=O)O)N1Cc2ccccc2C1=O (stereo not drawn)
- IC50 [23]: > 200 µM (inactive)
- IC50 [24]: > 200 µM (inactive)

Compound: CSc1nc(N)nc2c1ncn2CC(=O)N[C@H](C)c1cccc2ccccc12
- EC50 (Hexokinase HKDC1): 9.1 µM (active)
- EC50 (Hexokinase-1): 11.8 µM (active)

— ChEMBL document CHEMBL1201862, “PubChem BioAssay data set” (2004)
